In the supplement of paper PMC10307832:

Key:
Experiment in all cases: relative viability (nuclei count vs DMSO), 5 days (fraction); higher = more cells survive
[1] = compound: Cn1cncc1[C@@](N)(c1ccc(Cl)cc1)c1ccc2c(c1)c(-c1cccc(Cl)c1)cc(=O)n2C [Tipifarnib] + CC(C)C[C@H](NC(=O)[C@H](Cc1ccccc1)NC(=O)c1cnccn1)B(O)O [Bortezomib] (partner 0.002 µM)
Summary of the method: (§1)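 Lung cancer cell lines in 1536-well plates were dosed by pin tool the day after seeding, either with one drug alone or with a fixed anchor-drug dose plus five library-drug doses (not always all listed) in √10 steps. After 5 days, cells were fixed and their nuclei stained in one step (final 0.05% Triton X-100, 1% formaldehyde, 1 ug/ml Hoechst), then counted on 4× images. Relative viability is the nuclei count in treated wells divided by that in vehicle wells. Values are medians of duplicate plates.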

[2] = compound: Cn1cncc1[C@@](N)(c1ccc(Cl)cc1)c1ccc2c(c1)c(-c1cccc(Cl)c1)cc(=O)n2C [Tipifarnib] + CC1(C)CCC(c2ccc(Cl)cc2)=C(CN2CCN(c3ccc(C(=O)NS(=O)(=O)c4ccc(N[C@H](CCN5CCOCC5)CSc5ccccc5)c(S(=O)(=O)C(F)(F)F)c4)cc3)CC2)C1 [Navitoclax] (partner 0.5 µM)
Summary of the method: as §1

[3] = compound: Cn1cncc1[C@@](N)(c1ccc(Cl)cc1)c1ccc2c(c1)c(-c1cccc(Cl)c1)cc(=O)n2C [Tipifarnib] + CCNC(=O)c1noc(-c2cc(C(C)C)c(O)cc2O)c1-c1ccc(CN2CCOCC2)cc1 [Luminespib] (partner 0.01 µM)
Summary of the method: as §1

[4] = compound: Cn1cncc1[C@@](N)(c1ccc(Cl)cc1)c1ccc2c(c1)c(-c1cccc(Cl)c1)cc(=O)n2C [Tipifarnib] + Cc1nc(Nc2ncc(C(=O)Nc3c(C)cccc3Cl)s2)cc(N2CCN(CCO)CC2)n1 [Dasatinib] (partner 0.075 µM)
Summary of the method: as §1

Cell Line	relative viability ([1]; first compound 0.01 µM)	relative viability ([1]; first compound 0.03162 µM)	relative viability ([1]; first compound 0.1 µM)	relative viability ([1]; first compound 0.3162 µM)	relative viability ([1]; first compound 1 µM)	relative viability ([2]; first compound 0.01 µM)	relative viability ([2]; first compound 0.03162 µM)	relative viability ([2]; first compound 0.1 µM)	relative viability ([2]; first compound 0.3162 µM)	relative viability ([2]; first compound 1 µM)	relative viability ([3]; first compound 0.01 µM)	relative viability ([3]; first compound 0.03162 µM)	relative viability ([3]; first compound 0.1 µM)	relative viability ([3]; first compound 0.3162 µM)	relative viability ([3]; first compound 1 µM)	relative viability ([4]; first compound 0.01 µM)	relative viability ([4]; first compound 0.03162 µM)	relative viability ([4]; first compound 0.1 µM)	relative viability ([4]; first compound 0.3162 µM)	relative viability ([4]; first compound 1 µM)
LU99A	0.803	0.712	0.477	0.53	0.314	0.668	0.618	0.488	0.455	0.356	0.343	0.22	0.241	0.207	0.233	0.68	0.524	0.432	0.205	0.306
LXF-289	0.978	0.889	0.948	0.874	0.706	0.936	0.959	0.87	0.829	0.856	0.651	0.68	0.701	0.554	0.444	0.218	0.237	0.249	0.217	0.0926
NCI-H23	1.27	0.751	0.636	0.36	0.25	1.11	0.883	0.657	0.562	0.406	0.243	0.242	0.223	0.199	0.24	0.76	0.711	0.667	0.473	0.282
NCI-H322M	1.27	1.32	1.18	1.05	0.947	1.18	1.2	1.31	0.971	1.19	0.854	0.85	0.676	0.665	0.554	0.236	0.27	0.259	0.246	0.285
NCI-H441	0.685	0.2	0.432	0.207	0.185	0.498	0.255	0.481	0.294	0.253	0.39	0.355	0.242	0.315	0.267	0.592	0.516	0.484	0.396	0.277
NCI-H460	0.957	0.605	0.369	0.248	0.036	1.13	0.905	0.531	0.252	0.0922	0.0293	0.0319	0.0244	0.0236	0.0186	0.512	0.514	0.307	0.146	0.0594
NCI-H520	0.506	0.203	0.636	0.246	0.173	1.24	1.03	0.917	0.965	0.72	0.235	0.233	0.207	0.207	0.23	0.163	0.185	0.183	0.163	0.142
NCI-H596	1.05	1.12	1.17	0.913	0.699	1.05	0.78	0.72	0.739	0.64	1.08	0.796	0.849	0.828	0.63	0.612	0.653	0.527	0.423	0.384
NCI-H647	0.911	0.59	0.678	0.589	0.273	0.983	0.813	0.822	0.397	0.37	0.239	0.155	0.102	0.0914	0.0951	0.205	0.159	0.167	0.127	0.0682
NCI-H727	0.893	0.802	0.856	0.656	0.607	0.622	0.53	0.421	0.41	0.277	0.341	0.401	0.533	0.462	0.432	0.443	0.422	0.421	0.503	0.62
NCI-H838	0.713	0.733	0.589	0.439	0.41	1.09	0.978	0.932	0.854	0.862	0.41	0.266	0.212	0.21	0.211	0.322	0.296	0.233	0.263	0.237
NCI-H1355	1.17	0.992	0.806	0.722	0.813	0.906	0.791	0.767	0.614	0.628	0.76	0.61	0.525	0.532	0.433	0.684	0.687	0.524	0.496	0.443
NCI-H1437	0.54	0.554	0.403	0.41	0.306	1.14	1.07	1.06	1.03	0.927	1.25	1.17	1.15	0.913	1.07	0.446	0.482	0.452	0.416	0.214
NCI-H1650	0.224	0.204	0.202	0.209	0.191	0.666	0.352	0.402	0.291	0.289	0.19	0.208	0.189	0.203	0.184	0.274	0.254	0.24	0.22	0.202
NCI-H1651	0.94	0.916	1.04	0.842	0.78	1.15	1.21	0.994	0.912	0.895	0.921	0.934	0.797	0.684	0.753	0.474	0.209	0.389	0.363	0.196
NCI-H1666	0.801	0.793	0.671	0.614	0.442	0.853	0.758	0.727	0.644	0.637	1	0.92	0.94	0.842	0.806	0.791	0.779	0.785	0.748	0.605

Cell Line	relative viability ([1]; first compound 0.01 µM)	relative viability ([1]; first compound 0.03162 µM)	relative viability ([1]; first compound 0.1 µM)	relative viability ([1]; first compound 0.3162 µM)	relative viability ([1]; first compound 1 µM)	relative viability ([2]; first compound 0.01 µM)	relative viability ([2]; first compound 0.03162 µM)	relative viability ([2]; first compound 0.1 µM)	relative viability ([2]; first compound 0.3162 µM)	relative viability ([2]; first compound 1 µM)	relative viability ([3]; first compound 0.01 µM)	relative viability ([3]; first compound 0.03162 µM)	relative viability ([3]; first compound 0.1 µM)	relative viability ([3]; first compound 0.3162 µM)	relative viability ([3]; first compound 1 µM)	relative viability ([4]; first compound 0.01 µM)	relative viability ([4]; first compound 0.03162 µM)	relative viability ([4]; first compound 0.1 µM)	relative viability ([4]; first compound 0.3162 µM)	relative viability ([4]; first compound 1 µM)
NCI-H1734	0.953	0.764	0.724	0.502	0.385	0.882	0.718	0.635	0.464	0.431	0.198	0.147	0.171	0.168	0.164	0.465	0.389	0.347	0.274	0.22
NCI-H1755	0.987	0.835	0.848	0.821	0.626	1.02	0.971	0.968	0.776	0.851	0.516	0.475	0.516	0.545	0.201	0.477	0.39	0.365	0.348	0.271
NCI-H1792	0.967	0.877	0.661	0.621	0.432	0.717	0.583	0.466	0.364	0.108	0.505	0.329	0.379	0.268	0.262	1.01	0.821	0.571	0.524	0.484
NCI-H1915	0.844	0.466	0.54	0.418	0.286	0.791	0.65	0.768	0.455	0.469	0.681	0.638	0.48	0.44	0.428	0.241	0.182	0.201	0.175	0.16
NCI-H1975	0.49	0.283	0.311	0.214	0.2	1.29	1.04	1.08	0.541	0.734	0.235	0.282	0.163	0.172	0.106	0.383	0.356	0.412	0.238	0.185
NCI-H1993	1.12	0.852	0.955	0.608	0.806	0.852	0.866	0.765	0.645	0.671	0.697	0.644	0.57	0.504	0.481	0.596	0.515	0.495	0.527	0.516
NCI-H2009	1.11	0.775	0.678	0.642	0.373	1.13	1.06	0.785	0.63	0.744	0.955	0.827	0.786	0.528	0.599	0.31	0.232	0.217	0.211	0.21
NCI-H2023	1.27	0.757	0.45	0.453	0.156	1.01	0.773	0.68	0.457	0.47	0.749	0.486	0.386	0.337	0.286	0.561	0.427	0.325	0.299	0.217
NCI-H2085	1.15	0.729	0.695	0.601	0.72	0.862	0.788	0.546	0.611	0.514	0.406	0.317	0.34	0.295	0.34	0.296	0.264	0.262	0.25	0.288
NCI-H2087	0.705	0.418	0.375	0.276	0.39	0.918	0.559	0.407	0.411	0.467	0.185	0.154	0.165	0.141	0.152	0.764	0.405	0.289	0.264	0.21
NCI-H2126	1.05	1.07	1.13	1.05	0.669	0.888	0.822	0.845	0.74	0.709	0.982	0.947	0.7	0.876	0.723	0.652	0.673	0.648	0.578	0.391
NCI-H2228	1.2	0.615	0.727	0.577	0.404	0.878	0.71	1.06	0.735	0.527	0.126	0.126	0.165	0.145	0.157	0.531	0.52	0.456	0.266	0.184
NCI-H2347	0.897	0.469	0.751	0.698	0.738	0.782	0.576	0.643	0.627	0.598	0.671	0.298	0.401	0.386	0.28	0.278	0.293	0.256	0.303	0.277
NCI-H2405	0.983	0.909	0.985	0.923	0.61	1.01	0.86	0.961	0.8	0.537	0.71	0.584	0.525	0.606	0.527	0.188	0.208	0.219	0.228	0.217
NCI-H3122	0.967	0.976	0.986	0.833	0.832	1.02	0.95	0.857	0.675	0.782	0.0874	0.0613	0.0958	0.0893	0.0812	0.63	0.456	0.644	0.327	0.138
